Blank lines part the entries; values can stand above or below the molecule they belong to. Active and inactive are the calls of the source.
What was measured:
HEK293 [1] = test: optical interference in Abeta FP readout, dose response, artefact control for IDE activator project, biochemical, fluorescence polarization (AID 588442); format: functional, cell-based; conditions: Homo sapiens
ORF 73 = ORF 73 (Human herpesvirus 8, UniProt O40947); test: KSHV LANA DNA-binding disruption – biochemical, fluorescence polarization, cherry-picked samples, dose response (AID 504725); design: species or system Human gammaherpesvirus 8;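 also: fluorescence polarization of a labeled DNA duplex reporting LANA DNA binding; potency is for inhibitors that block LANA binding to the DNA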
HeLa = test: viability loss in HeLa cells – cell-based, 24 h, cherry-picked samples, cytotoxicity control, dose response (AID 504726); format: functional; conditions: Homo sapiens;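 also: potency for cytotoxicity as loss of luminescence signal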
Caspase-7 = Caspase-7 (Homo sapiens, UniProt P55210); test: caspase-7 enzyme inhibition, selectivity check – biochemical, DEVD-R110 fluorescence, cherry-pick, selectivity assay for caspase-6 inhibitor project, dose response (AID 743295); format: functional
Insulin-degrading enzyme = target: T1, Insulin-degrading enzyme (Homo sapiens, UniProt P14735); test: recombinant IDE activation, cell-free – biochemical, fluorescence polarization, counter-screen for IDE activator project, dose response (AID 588681)
T1 sequence (P14735 whole entry): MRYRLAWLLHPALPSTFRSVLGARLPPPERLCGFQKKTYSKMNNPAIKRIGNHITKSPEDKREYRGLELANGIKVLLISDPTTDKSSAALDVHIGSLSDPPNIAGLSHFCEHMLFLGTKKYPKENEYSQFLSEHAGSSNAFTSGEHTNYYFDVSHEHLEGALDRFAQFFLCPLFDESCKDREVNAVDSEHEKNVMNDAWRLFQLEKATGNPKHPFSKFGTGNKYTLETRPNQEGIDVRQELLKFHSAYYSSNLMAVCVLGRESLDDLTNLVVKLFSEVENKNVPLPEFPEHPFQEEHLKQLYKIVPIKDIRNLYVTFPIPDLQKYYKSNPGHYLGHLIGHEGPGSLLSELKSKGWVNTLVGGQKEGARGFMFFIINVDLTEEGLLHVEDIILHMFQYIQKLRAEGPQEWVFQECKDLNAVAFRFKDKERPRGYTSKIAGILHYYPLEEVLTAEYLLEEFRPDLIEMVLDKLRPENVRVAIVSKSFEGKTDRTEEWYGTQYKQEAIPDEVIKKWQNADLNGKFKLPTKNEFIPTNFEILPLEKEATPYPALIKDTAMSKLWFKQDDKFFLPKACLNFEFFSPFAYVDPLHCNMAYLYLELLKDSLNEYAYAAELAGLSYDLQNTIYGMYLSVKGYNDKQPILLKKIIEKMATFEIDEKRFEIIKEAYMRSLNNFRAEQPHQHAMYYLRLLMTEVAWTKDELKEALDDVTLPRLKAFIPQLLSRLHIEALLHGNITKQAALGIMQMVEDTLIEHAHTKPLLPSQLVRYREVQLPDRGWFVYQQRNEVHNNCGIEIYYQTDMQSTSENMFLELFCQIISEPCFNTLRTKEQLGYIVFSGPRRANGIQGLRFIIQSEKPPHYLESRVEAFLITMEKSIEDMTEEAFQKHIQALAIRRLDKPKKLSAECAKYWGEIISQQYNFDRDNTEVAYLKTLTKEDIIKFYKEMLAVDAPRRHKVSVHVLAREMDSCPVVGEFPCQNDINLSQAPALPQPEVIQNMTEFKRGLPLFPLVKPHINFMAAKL

HEK293 [2] = test: membrane integrity loss in HEK cells – cell-based, fluorescence, cytotoxicity control for IDE activator project, dose response (AID 588440); format: functional; conditions: Homo sapiens;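 also: cytotoxicity by LDH release measuring loss of membrane integrity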
Caspase-3 = target: T2, Caspase-3 (Homo sapiens, UniProt P42574); test: human caspase-3 protease activity blockade – biochemical, fluorescence, cherry-picked samples, selectivity assay for caspase-6 allosteric inhibitor project, dose response (AID 743291)
T2 sequence (P42574 whole entry): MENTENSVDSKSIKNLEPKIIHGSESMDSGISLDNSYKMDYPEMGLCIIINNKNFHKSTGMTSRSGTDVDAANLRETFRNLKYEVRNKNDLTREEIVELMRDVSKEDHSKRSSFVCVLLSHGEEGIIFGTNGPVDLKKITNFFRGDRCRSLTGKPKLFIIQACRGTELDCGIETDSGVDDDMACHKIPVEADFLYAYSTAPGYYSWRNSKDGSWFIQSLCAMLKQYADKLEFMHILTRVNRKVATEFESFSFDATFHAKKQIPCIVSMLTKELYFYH

[3] = target: Dual specificity tyrosine-phosphorylation-regulated kinase 4 (Homo sapiens, UniProt Q9NR20); format: functional
[4] = target: Serine/threonine-protein kinase MRCK alpha (Homo sapiens, UniProt Q5VT25); format: functional
[5] = target: Serine/threonine-protein kinase N2 (Homo sapiens, UniProt Q16513); format: functional
[6] = target: Casein kinase II subunit alpha (Homo sapiens, UniProt P68400); format: functional
[7] = target: Proto-oncogene tyrosine-protein kinase Src (Homo sapiens, UniProt P12931); format: functional;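 also: SRC entry within a kinome-wide kinase profiling panel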
[8] = target: Lymphokine-activated killer T-cell-originated protein kinase (Homo sapiens, UniProt Q96KB5); format: functional;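 also: value comes from a kinase panel screen in which TOPK was one of the panel members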
[9] = target: Ribosomal protein S6 kinase beta-1 (Homo sapiens, UniProt P23443); format: functional;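 also: measured as one member of a kinome-wide profiling panel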
[10] = target: Tyrosine-protein kinase ITK/TSK (Homo sapiens, UniProt Q08881); format: functional;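 also: affinity for ITK measured as one member of a broad kinase panel profiling binding across the kinome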
[11] = target: Serine/threonine-protein kinase Chk2 (Homo sapiens, UniProt O96017); format: functional;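 also: CHEK2 entry within a kinome-wide screening panel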
[12] = target: Rho-associated protein kinase 2 (Homo sapiens, UniProt O75116); format: functional
[13] = target: MAP kinase-interacting serine/threonine-protein kinase 2 (Homo sapiens, UniProt Q9HBH9); format: functional
[14] = target: Homeodomain-interacting protein kinase 2 (Homo sapiens, UniProt Q9H2X6); format: functional;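 also: measured within a kinome-wide kinase profiling panel, HIPK2 being one panel member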
[15] = target: Serine/threonine-protein kinase 17A (Homo sapiens, UniProt Q9UEE5); format: functional
[16] = target: 3-phosphoinositide-dependent protein kinase 1 (Homo sapiens, UniProt O15530); format: functional;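 also: value comes from the Navigating the Kinome panel, PDPK1 member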
[17] = target: Proto-oncogene tyrosine-protein kinase ROS (Homo sapiens, UniProt P08922); format: functional;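 also: ROS1 tested as one member of a kinome-wide kinase panel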
[18] = target: Testis-specific serine/threonine-protein kinase 2 (Homo sapiens, UniProt Q96PF2); format: functional;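 also: part of the Navigating the Kinome panel, target entry STK22B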

Chain of Proto-oncogene tyrosine-protein kinase ROS (P08922 whole entry): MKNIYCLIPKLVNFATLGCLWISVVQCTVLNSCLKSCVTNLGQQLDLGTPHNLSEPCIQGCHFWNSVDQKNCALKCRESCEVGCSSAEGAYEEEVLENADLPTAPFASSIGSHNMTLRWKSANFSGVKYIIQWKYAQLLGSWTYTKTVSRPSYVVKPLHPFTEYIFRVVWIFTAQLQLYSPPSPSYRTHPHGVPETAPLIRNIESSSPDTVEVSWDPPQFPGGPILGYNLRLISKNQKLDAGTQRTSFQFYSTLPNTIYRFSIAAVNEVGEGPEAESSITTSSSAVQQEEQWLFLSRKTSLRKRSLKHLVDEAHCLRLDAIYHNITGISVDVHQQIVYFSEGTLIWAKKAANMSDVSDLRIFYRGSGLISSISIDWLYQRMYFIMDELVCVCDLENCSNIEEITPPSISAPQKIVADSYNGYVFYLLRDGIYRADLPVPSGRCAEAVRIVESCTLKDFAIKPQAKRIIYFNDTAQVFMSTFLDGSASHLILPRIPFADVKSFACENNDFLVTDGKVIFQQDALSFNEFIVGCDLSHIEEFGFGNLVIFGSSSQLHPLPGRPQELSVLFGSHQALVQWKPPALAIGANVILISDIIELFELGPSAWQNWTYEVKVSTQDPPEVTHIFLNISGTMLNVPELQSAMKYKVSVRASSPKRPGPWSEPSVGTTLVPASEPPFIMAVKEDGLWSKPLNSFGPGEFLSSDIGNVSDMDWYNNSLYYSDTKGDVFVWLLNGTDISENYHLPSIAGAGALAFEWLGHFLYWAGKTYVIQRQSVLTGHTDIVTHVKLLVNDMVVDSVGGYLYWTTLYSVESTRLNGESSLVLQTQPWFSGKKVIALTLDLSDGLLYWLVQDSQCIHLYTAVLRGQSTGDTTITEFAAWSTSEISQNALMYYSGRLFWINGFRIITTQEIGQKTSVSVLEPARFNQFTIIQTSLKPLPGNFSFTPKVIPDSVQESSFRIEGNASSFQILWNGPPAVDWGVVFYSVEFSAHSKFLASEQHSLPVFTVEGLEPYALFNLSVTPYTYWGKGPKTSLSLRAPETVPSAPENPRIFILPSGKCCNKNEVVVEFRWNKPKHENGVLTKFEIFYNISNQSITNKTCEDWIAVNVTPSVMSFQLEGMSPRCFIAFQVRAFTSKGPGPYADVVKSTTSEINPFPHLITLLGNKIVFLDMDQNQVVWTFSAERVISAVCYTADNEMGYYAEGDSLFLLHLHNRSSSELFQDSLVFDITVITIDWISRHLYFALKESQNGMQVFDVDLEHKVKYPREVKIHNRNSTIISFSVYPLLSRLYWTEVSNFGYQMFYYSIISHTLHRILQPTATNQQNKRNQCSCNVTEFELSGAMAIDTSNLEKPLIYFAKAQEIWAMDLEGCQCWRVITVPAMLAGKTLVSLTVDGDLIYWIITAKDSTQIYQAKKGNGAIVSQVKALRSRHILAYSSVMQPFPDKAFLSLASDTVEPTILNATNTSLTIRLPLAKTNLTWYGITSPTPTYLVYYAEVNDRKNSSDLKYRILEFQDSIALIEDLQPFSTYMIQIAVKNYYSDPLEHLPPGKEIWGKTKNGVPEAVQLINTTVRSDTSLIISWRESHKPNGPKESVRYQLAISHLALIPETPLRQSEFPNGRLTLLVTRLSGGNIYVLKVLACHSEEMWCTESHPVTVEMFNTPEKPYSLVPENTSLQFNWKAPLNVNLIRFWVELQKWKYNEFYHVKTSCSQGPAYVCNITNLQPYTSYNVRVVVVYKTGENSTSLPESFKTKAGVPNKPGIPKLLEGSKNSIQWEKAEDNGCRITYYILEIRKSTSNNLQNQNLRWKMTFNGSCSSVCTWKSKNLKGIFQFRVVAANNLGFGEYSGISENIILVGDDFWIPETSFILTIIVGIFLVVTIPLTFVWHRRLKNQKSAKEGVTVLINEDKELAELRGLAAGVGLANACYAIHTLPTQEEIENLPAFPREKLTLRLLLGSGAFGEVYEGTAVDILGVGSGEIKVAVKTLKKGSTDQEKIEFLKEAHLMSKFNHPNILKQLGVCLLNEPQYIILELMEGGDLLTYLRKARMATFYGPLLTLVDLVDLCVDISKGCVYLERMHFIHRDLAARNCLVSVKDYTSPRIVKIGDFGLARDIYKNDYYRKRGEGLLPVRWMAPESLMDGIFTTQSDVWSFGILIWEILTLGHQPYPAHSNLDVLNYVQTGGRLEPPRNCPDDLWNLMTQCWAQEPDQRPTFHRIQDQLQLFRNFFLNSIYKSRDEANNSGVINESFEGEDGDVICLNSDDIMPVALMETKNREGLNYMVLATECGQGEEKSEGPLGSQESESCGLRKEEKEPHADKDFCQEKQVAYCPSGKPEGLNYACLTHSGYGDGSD
Chain of Homeodomain-interacting protein kinase 2 (Q9H2X6 whole entry): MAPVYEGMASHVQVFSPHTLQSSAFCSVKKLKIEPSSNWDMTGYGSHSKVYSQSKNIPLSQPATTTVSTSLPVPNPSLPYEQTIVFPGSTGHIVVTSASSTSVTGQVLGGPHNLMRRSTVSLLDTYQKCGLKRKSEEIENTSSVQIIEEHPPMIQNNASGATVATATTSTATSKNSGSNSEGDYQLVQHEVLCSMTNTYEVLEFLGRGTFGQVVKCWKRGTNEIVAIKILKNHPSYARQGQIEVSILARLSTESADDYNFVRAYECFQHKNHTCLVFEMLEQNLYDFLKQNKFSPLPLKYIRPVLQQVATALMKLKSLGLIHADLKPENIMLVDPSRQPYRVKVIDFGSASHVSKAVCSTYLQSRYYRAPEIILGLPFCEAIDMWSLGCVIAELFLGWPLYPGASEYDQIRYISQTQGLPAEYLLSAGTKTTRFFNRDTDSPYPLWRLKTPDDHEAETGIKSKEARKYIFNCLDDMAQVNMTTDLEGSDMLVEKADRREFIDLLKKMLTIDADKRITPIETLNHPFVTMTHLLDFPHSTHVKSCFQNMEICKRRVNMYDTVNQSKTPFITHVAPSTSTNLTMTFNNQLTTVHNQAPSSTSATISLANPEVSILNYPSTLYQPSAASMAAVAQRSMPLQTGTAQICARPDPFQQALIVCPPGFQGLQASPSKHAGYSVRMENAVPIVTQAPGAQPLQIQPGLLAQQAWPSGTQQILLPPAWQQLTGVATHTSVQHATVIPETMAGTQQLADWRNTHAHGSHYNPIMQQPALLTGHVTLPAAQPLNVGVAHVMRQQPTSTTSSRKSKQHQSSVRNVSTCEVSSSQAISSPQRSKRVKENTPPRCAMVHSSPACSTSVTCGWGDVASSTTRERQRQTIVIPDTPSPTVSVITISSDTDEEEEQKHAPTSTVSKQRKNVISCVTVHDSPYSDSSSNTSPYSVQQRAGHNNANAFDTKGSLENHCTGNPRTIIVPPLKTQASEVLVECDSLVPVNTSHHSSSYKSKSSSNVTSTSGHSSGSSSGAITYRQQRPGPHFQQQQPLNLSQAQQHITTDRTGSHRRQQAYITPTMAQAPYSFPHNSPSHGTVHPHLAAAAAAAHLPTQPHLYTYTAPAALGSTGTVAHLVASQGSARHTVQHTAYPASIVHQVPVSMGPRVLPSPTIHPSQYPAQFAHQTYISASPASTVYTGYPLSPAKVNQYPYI
Chain of MAP kinase-interacting serine/threonine-protein kinase 2 (Q9HBH9 whole entry): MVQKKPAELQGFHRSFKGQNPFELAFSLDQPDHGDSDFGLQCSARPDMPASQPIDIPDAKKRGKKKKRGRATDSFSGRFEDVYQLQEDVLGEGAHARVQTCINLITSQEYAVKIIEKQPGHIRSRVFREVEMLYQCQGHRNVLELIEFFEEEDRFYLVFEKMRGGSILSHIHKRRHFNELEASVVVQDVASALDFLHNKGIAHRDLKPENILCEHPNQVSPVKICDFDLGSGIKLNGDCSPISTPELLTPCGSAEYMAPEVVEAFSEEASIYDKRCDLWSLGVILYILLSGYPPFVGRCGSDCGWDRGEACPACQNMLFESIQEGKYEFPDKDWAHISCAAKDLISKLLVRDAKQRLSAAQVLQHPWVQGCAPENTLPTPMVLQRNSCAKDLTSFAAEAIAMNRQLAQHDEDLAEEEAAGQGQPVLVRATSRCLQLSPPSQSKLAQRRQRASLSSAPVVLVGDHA
Chain of Serine/threonine-protein kinase 17A (Q9UEE5 whole entry): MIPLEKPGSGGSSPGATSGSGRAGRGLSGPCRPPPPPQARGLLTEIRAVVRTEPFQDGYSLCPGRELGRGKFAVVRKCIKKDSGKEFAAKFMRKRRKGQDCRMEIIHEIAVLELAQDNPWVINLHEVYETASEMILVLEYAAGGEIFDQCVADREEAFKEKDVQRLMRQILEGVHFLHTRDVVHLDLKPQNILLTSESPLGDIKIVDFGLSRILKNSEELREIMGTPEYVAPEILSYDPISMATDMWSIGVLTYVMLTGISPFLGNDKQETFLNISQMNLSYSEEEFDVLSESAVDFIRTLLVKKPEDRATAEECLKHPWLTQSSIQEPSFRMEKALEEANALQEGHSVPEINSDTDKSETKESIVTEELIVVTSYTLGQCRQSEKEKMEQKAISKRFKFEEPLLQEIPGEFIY
Chain of Casein kinase II subunit alpha (P68400 whole entry): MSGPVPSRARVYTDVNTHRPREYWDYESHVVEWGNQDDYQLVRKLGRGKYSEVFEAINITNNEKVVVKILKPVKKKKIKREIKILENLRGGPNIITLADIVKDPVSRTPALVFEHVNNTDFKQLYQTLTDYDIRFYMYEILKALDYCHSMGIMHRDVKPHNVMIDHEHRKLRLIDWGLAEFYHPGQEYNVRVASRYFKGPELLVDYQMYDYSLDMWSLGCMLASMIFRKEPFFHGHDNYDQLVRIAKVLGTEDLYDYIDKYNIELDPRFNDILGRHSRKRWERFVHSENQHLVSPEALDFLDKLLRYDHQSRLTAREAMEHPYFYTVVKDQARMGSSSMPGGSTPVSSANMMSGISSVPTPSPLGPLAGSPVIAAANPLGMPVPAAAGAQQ

SMILES: CCN(CC)CCCC(C)n1c2nc(=O)[nH]c(=O)c-2nc2cc(Cl)ccc21 (centres undefined)
EC50 (HEK293 [1]): > 54.7 µM (inactive) | AC50 (ORF 73): 370 nM (active) | AC50 (HeLa): 8.49 µM (active) | AC50 (Caspase-7): 899 nM (active) | EC50 (Insulin-degrading enzyme): > 54.7 µM (inactive) | IC50 (HEK293 [2]): > 89.2 µM (inactive) | AC50 (Caspase-3): 561 nM (active)

Ki [3]: 3.16 µM (active) | pKi [3]: 5.5 | Ki [4]: 31.6 nM (active) | pKi [4]: 7.5 | Ki [5]: 7.94 nM (active) | pKi [5]: 8.1 | Ki [6]: 158 nM (active) | pKi [6]: 6.8 | Ki [7]: > 2 µM (inactive) | Ki [9]: 100 nM (active) | pKi [9]: 7 | Ki [10]: 398 nM (active) | pKi [10]: 6.4 | Ki [11]: > 1.58 µM (inactive) | Ki [12]: > 3.98 nM (inactive) | Ki [13]: 39.8 nM (active) | pKi [13]: 7.4 | Ki [14]: 31.6 nM (active) | pKi [14]: 7.5 | Ki [15]: 39.8 nM (active) | pKi [15]: 7.4 | Ki [16]: 501 nM (active) | pKi [16]: 6.3 | Ki [17]: 158 nM (active) | pKi [17]: 6.8 | Ki [18]: > 1.58 µM (inactive)
SMILES: OC1CCC(Nc2nc(Cl)cc(-c3c[nH]c4ncccc34)n2)CC1 (centres undefined)
Ki [8]: 3.16 µM (active)

From ChEMBL document CHEMBL1201862, “PubChem BioAssay data set” (2004)
